The source of these data is publication doi:10.1101/2025.08.01.667454v3 (biorxiv, 2025).

In test [1] the target is T1, BAF60A^YLD+SWIB (Homo sapiens, UniProt Q96GM5). Nature of the test: fluorescence polarization competition with PU.[…]. In kind it is binding. On the technique in general: Polarisation of emitted light reports the rotation of a fluorescent probe.
Test [2] concerns the target T1, BAF60A^YLD+SWIB. The test can be described thus: SPR steady state, amine-coupled protein. The test is classed as binding.

At BAF60A^YLD+SWIB [1], `CC1=C(C(=O)Nc2cccc(C)n2)C(c2cccc(Br)c2)C2=C(CCCC2=O)N1` (stereo not shown) [PPSC-001] came in with an IC50 of 9.13 µM. The compound further had a Kd at BAF60A^YLD+SWIB [2] of 8.89 µM.
The matching figures for `COC(=O)c1ccc(Cn2c(C)nc3cc4c(cc32)OCCO4)cc1` [PPSC-002]: 33 µM and 22.6 µM.

The IC50 is the concentration that gives 50% inhibition. Read a high IC50 as lower potency. What is called Kd is the constant that tells how readily two partners part at equilibrium. Low readings indicate a tighter complex, high ones a looser complex.
